Assay results taken from US8231887B2, “Pesticidal compositions” (BASF Corporation, priority 2008, dated 2012).
Where “and” joins values, the source holds several entries; their conditions need not be identical. Equal values may be shown once.

What was measured:
Format in all cases: in vivo, Blattella germanica
cockroaches [1] = assay: Topical toxicity test of alcohols and/or PD23 mineral oil, dead at 24 h (Example 10)
Method: (§1) Toxicity evaluations were performed on 7-14 day old adult male and female German cockroaches (SCJ Strain, S.C. Johnson & Son, Racine, Wis.). Approximately 12 cockroaches were transferred to individual 100×20 mm polystyrene Petri dishes and anesthetized with a 15-25 second exposure to carbon dioxide. The inside edge of each Petri dish was lightly coated with mineral oil plus petroleum jelly in a 1:3 (wt/wt) ratio to minimize escape. Anesthetized cockroaches were positioned with their ventral side up, and a 1 μl drop of the diluted test composition was applied to the area between the meso- and metathoracic legs using a Rainin L-10, 10 μl capacity pipette (Rainin Instrument, LLC, Oakland, Calif.). Five replications of 12 male cockroaches were done for each test composition. Separate tests were done using female cockroaches. Results were evaluated at 24 hours following treatment. Cockroaches were scored as either alive (dorsal side up, active movement when abdomen prodded with dissecting probe) or moribund/dead (dorsal side up and no movement when abdomen prodded or ventral side up and insect unable to right itself).
The compositions comprising alcohol and/or mineral oil are described in Table 13.

cockroaches [2] = assay: LD50 and LD10 of mineral oils and alcohols, dose-response mortality, probit analysis (Example 9); conditions: 95% CI printed in the line below
Method: In this example, various mineral oils and alcohols were tested to determine, for cockroaches, the LD50 and LD10 for each.
PD23 and PD28 mineral oils were obtained from Sonneborn LLC, Mahwah, N.J. The physical properties of these oils are shown in Table 11. Each mineral oil was tested to determine the LD50 and LD10 (Table 12).
The tested alcohols were obtained from Sigma-Aldrich Corp., St. Louis, Mo. Each alcohol was tested to determine the LD50 and LD10 (Table 12).

cockroaches [3] = assay: Topical toxicity test of various compounds and/or PD23 mineral oil, dead at 24 h (Example 12); conditions: for Proportion dead at 24 h: calculated proportion; for increase in mortality when combined with PD23 mineral oil: result in words, compared to the other compounds tested
Method: as §1

[4] = Table 14, composite data of the replicates
[5] = Table 14, composite data, calculated proportion
[6] = Table 13, per replicate of 10-16 treated cockroaches, mg per insect in the label
[7] = compound alone, 0.25 mg, one replicate group per row
[8] = Table 17, composite data, listed as nitromethane (75-52-5) (0.80 mg)

| Compound | # dead at 24 h (cockroaches [1]; [4]) | Proportion dead at 24 h (cockroaches [1]; [5]) | # dead at 24 h (cockroaches [3]; Table 17, composite data) | Proportion dead at 24 h (cockroaches [3]; Table 17, composite data) | also measured |
| --- | --- | --- | --- | --- | --- |
| 1-butanol [Composition 1-butanol] | 1 | 0.029 | – | – | # dead at 24 h (cockroaches [1]; Table 13, per replicate of 10-16 treated cockroaches, mg per insect in the label, listed as 1-butanol (0.8 mg)): 0 (2×) and 1; Proportion dead at 24 h (cockroaches [1]; Table 13, per replicate, listed as 1-butanol (0.8 mg)): 0.000 (2×) and 0.100; LD10 mg/insect (cockroaches [2]): 0.877 mg/insect; LD50 mg/insect (cockroaches [2]): 1.018 mg/insect |
| 2-butanol [Composition 2-butanol] | 1 | 0.026 | – | – | # dead at 24 h (cockroaches [1]; Table 13, per replicate of 10-16 treated cockroaches, mg per insect in the label, listed as 2-butanol (0.8 mg)): 0 (2×) and 1; Proportion dead at 24 h (cockroaches [1]; Table 13, per replicate, listed as 2-butanol (0.8 mg)): 0.000 (2×) and 0.083; LD10 mg/insect (cockroaches [2]): 0.881 mg/insect; LD50 mg/insect (cockroaches [2]): 1.188 mg/insect |
| CCCCCCCCCCCCCCO [1-tetradecanol] | 4 | 0.108 | – | – | # dead at 24 h (cockroaches [1]; Table 13, per replicate of 10-16 treated cockroaches, mg per insect in the label, listed as 1-tetradecanol (1.00 mg)): 1 and 2; Proportion dead at 24 h (cockroaches [1]; Table 13, per replicate, listed as 1-tetradecanol (1.00 mg)): 0.083 and 0.154 |
| CCC(C)=O [2-butanone] | – | – | 3 | 0.083 | – |
| CCCCOCCO [2-butoxyethanol] | 0 | 0.000 | – | – | Proportion dead at 24 h (cockroaches [1]; Table 13, per replicate): 0.000; # dead at 24 h (cockroaches [1]; [6]): 0 |
| CCOCCO [2-ethoxyethanol] | – | – | 1 | 0.033 | increase in mortality when combined with PD23 mineral oil (cockroaches [3]): greatest increase in mortality |
| OCCc1ccccc1 [2-phenylethanol] | 5 | 0.106 | – | – | LD10 mg/insect (cockroaches [2]): 0.075 mg/insect |
| CC(=O)c1ccccc1 [Acetophenone (98-86-2) (0.10 mg), Acetophenone] | – | – | 0 | – | increase in mortality when combined with PD23 mineral oil (cockroaches [3]): greatest increase in mortality |
| ClC(Cl)Cl [Chloroform-anhydrous (67-66-3) (2.0 mg), Chloroform] | – | – | 1 | 0.050 | – |
| CCCCCCCCCCO [Composition 1-decanol, 1-decanol] | 1 | 0.027 | – | – | – |
| CCCCCCCCCCCCO [Composition 1-dodecanol, 1-dodecanol] | 3 | 0.077 | – | – | – |
| CCCCCCO [Composition 1-hexanol, 1-hexanol] | 3 | 0.083 | – | – | Proportion dead at 24 h (cockroaches [1]; Table 13, per replicate): 0.083; # dead at 24 h (cockroaches [1]; [6]): 1 |
| CCCCCCCCCO [Composition 1-nonanol, 1-nonanol] | 1 | 0.024 | – | – | – |
| CCCCCCCCO [Composition 1-octanol, 1-octanol] | 2 | 0.054 | – | – | – |
| CCCCCCCCCCCO [Composition 1-undecanol, 1-undecanol] | 4 | 0.105 | – | – | – |
| OCCOCCO [Di(ethylene) glycol (111-46-6) (0.80 mg), Di(ethylene) glycol] | – | – | 6 | – | – |
| CC(=O)CC(C)(C)O [Diacetone alcohol] | 1 | 0.025 | – | – | – |
| ClCCl [Dichloromethane] | – | – | – | 0.000 | pest or weed control at 1.5 mg (cockroaches [3]; Blattella germanica, topical, 24 h, read-out: Proportion dead at 24 hr): 0%; # dead at 24 h (cockroaches [3]; compound alone, 1.50 mg): 0 |
| COCOC [Dimethoxymethane] | – | – | – | 0.000 | pest or weed control at 2 mg (cockroaches [3]; Blattella germanica, topical, 24 h, compound alone, 2.00 mg, read-out: Proportion dead at 24 hr): 0%; # dead at 24 h (cockroaches [3]; compound alone, 2.00 mg): 0; Proportion dead at 24 hr (cockroaches [3]; compound alone, 2.00 mg): 0.000 |
| CCO [Ethanol] | 1 | 0.027 | – | – | – |
| CCCCCC [Hexanes (110-54-3) (0.80 mg), Hexanes] | – | – | 1 | 0.100 | – |
| CC(=O)OC(C)C [Isopropyl acetate (108-21-4) (1.0 mg), Isopropyl acetate] | – | – | 3 | 0.150 | – |
| CC(=O)OC(C)C [Isopropyl acetate] | – | – | – | – | # dead at 24 h (cockroaches [3]; compound alone, 1.00 mg): 1 and 2; Proportion dead at 24 hr (cockroaches [3]; compound alone, 1.00 mg): 0.200 |

| Compound | # dead at 24 h (cockroaches [1]; [4]) | Proportion dead at 24 h (cockroaches [1]; [5]) | # dead at 24 h (cockroaches [3]; Table 17, composite data) | Proportion dead at 24 h (cockroaches [3]; Table 17, composite data) | also measured |
| --- | --- | --- | --- | --- | --- |
| CC(C)O [Isopropyl alcohol] | 0 | 0.000 | – | – | Proportion dead at 24 h (cockroaches [1]; Table 13, per replicate): 0.000; # dead at 24 h (cockroaches [1]; [6]): 0 |
| CO [Methanol] | 1 | 0.026 | – | – | # dead at 24 h (cockroaches [1]; Table 13, per replicate of 10-16 treated cockroaches, mg per insect in the label, listed as methanol (3.0 mg)): 0 (2×) and 1; Proportion dead at 24 h (cockroaches [1]; Table 13, per replicate, listed as methanol (3.0 mg)): 0.000 (2×) and 0.077; LD10 mg/insect (cockroaches [2]): Estimated at ~3.000 mg/insect; LD50 mg/insect (cockroaches [2]): >7.00 mg/insect |
| CC(Cl)(Cl)Cl [Methyl chloroform (71-55-6) (2.00 mg), Methyl chloroform] | – | – | 2 | 0.095 | – |
| CC(Cl)(Cl)Cl [Methyl chloroform] | – | – | – | – | # dead at 24 h (cockroaches [3]; compound alone, 2.00 mg): 1; Proportion dead at 24 hr (cockroaches [3]; compound alone, 2.00 mg): 0.091 and 0.100 |
| CC(=O)CC(C)C [Methyl isobutyl ketone] | – | – | 1 | 0.048 | – |
| COC(C)(C)C [Methyl t-butyl ether] | – | – | 5 | 0.227 | # dead at 24 h (cockroaches [3]; compound alone, 2.00 mg): 2 and 3; Proportion dead at 24 hr (cockroaches [3]; compound alone, 2.00 mg): 0.300 |
| c1ccncc1 [Pyridine (110-86-1) (0.10 mg), Pyridine] | – | – | 1 | 0.032 | increase in mortality when combined with PD23 mineral oil (cockroaches [3]): greatest increase in mortality |
| C1CCOC1 [Tetrahydrofuran (109-99-9) (0.80 mg), Tetrahydrofuran] | – | – | 3 | 0.300 | – |
| C1CCOC1 [Tetrahydrofuran] | – | – | – | – | # dead at 24 h (cockroaches [3]; compound alone, 0.80 mg): 3; Proportion dead at 24 hr (cockroaches [3]; compound alone, 0.80 mg): 0.300 |
| Cc1ccccc1 [Toluene (108-88-3) (0.90 mg), Toluene] | – | – | 0 | 0.000 | – |
| Cc1ccccc1 [Toluene] | – | – | – | – | # dead at 24 h (cockroaches [3]; compound alone, 0.90 mg): 0; Proportion dead at 24 hr (cockroaches [3]; compound alone, 0.90 mg): 0.000 |
| CC(=O)OCC(COC(C)=O)OC(C)=O [Triacetin (102-76-1) (2.0 mg), Triacetin] | – | – | 1 | 0.033 | increase in mortality when combined with PD23 mineral oil (cockroaches [3]): greatest increase in mortality |
| CCOCC [diethyl ether (60-29-7) (2.0 mg), diethyl ether] | – | – | 0 | 0.000 | – |
| CCOCC [diethyl ether] | – | – | – | – | # dead at 24 h (cockroaches [3]; compound alone, 2.00 mg): 0; Proportion dead at 24 hr (cockroaches [3]; compound alone, 2.00 mg): 0.000 |
| O=C1CCCO1 [gamma butyrolactone (96-48-0) (0.25 mg), gamma butyrolactone] | – | – | 11 | 0.407 | increase in mortality when combined with PD23 mineral oil (cockroaches [3]): greatest increase in mortality |
| O=C1CCCO1 [gamma butyrolactone] | – | – | – | – | # dead at 24 h (cockroaches [3]; [7]): 3 and 5; Proportion dead at 24 hr (cockroaches [3]; [7]): 0.300 and 0.500 |
| CC(C)CO [isobutyl alcohol] | 1 | 0.026 | – | – | # dead at 24 h (cockroaches [1]; Table 13, per replicate of 10-16 treated cockroaches, mg per insect in the label, listed as isobutyl alcohol (0.50 mg)): 1; Proportion dead at 24 h (cockroaches [1]; Table 13, per replicate, listed as isobutyl alcohol (0.50 mg)): 0.071 |
| CN1CCCC1=O [n-methyl pyrrolidone] | – | – | – | 0.100 | Proportion dead at 24 h (cockroaches [3]; Table 17, composite data, listed as n-methyl pyrrolidone (872-50-4) (0.10 mg)): 0.500; # dead at 24 h (cockroaches [3]; compound alone, 0.05 mg): 1; # dead at 24 h (cockroaches [3]; compound alone, 0.10 mg): 5 |
| C[N+](=O)[O-] [nitromethane (75-52-5) (0.70 mg), nitromethane] | – | – | 0 | – | Proportion dead at 24 h (cockroaches [3]; [8]): 0.179; # dead at 24 h (cockroaches [3]; [8]): 5; increase in mortality when combined with PD23 mineral oil (cockroaches [3]): greatest increase in mortality |
| CC(C)(C)O [tertiary butyl alcohol] | 2 | 0.045 | – | – | # dead at 24 h (cockroaches [1]; Table 13, per replicate of 10-16 treated cockroaches, mg per insect in the label, listed as t-butyl alcohol (0.5 mg)): 0 (3×) and 2; Proportion dead at 24 h (cockroaches [1]; Table 13, per replicate, listed as t-butyl alcohol (0.5 mg)): 0.000 |
| Diisopropyl biphenyl | – | – | 0 | 0.000 | – |
| Hexanes | – | – | – | – | # dead at 24 h (cockroaches [3]; compound alone, 0.80 mg): 1; Proportion dead at 24 hr (cockroaches [3]; compound alone, 0.80 mg): 0.100 |
